Measurements reported in PubChem BioAssay AID743299 (The Scripps Research Institute Molecular Screening Center, 2014).
pIC50: −log10 of the molar value.

Molecular target: methionyl-tRNA synthetase (Trypanosoma brucei brucei)
Test: T. brucei MetRS inhibitors, orthogonal readout, late-stage follow-up, orthogonal assay for T. brucei MetRS inhibitor project, biochemical, fluorescence polarization, dose response, round 2 (AID 743299)
Conditions: recombinant T. brucei MetRS

pIC50: 6.74
SMILES: CCN(CC)C(=O)C(=O)c1cn(CC(=O)Nc2cccc(C(F)(F)F)c2)c2ccccc12
